Experimental data as given in PMC5130005, “Indolin-2-one compounds targeting thioredoxin reductase as potential anticancer drug leads” (Oncotarget, 2016).

Columns and labels:
TrxR in HCT 116 cells = molecular target: T1, TrxR in HCT 116 cells (Homo sapiens, UniProt Q16881); assay: cellular TrxR activity in HCT 116 cell lysates (insulin reduction assay); assay type: cell-based; conditions: for cellular TrxR activity, HCT 116 cells: 10 h treatment, 20, 30, 40 and 50 μM
T1 construct: Lysates of HCT 116 cells treated with indicated concentrations of selected SCA analogs for 10 h; endogenous in cells; host or cells: HCT 116
T1 sequence (Q16881 1-499 isoform Q16881-5): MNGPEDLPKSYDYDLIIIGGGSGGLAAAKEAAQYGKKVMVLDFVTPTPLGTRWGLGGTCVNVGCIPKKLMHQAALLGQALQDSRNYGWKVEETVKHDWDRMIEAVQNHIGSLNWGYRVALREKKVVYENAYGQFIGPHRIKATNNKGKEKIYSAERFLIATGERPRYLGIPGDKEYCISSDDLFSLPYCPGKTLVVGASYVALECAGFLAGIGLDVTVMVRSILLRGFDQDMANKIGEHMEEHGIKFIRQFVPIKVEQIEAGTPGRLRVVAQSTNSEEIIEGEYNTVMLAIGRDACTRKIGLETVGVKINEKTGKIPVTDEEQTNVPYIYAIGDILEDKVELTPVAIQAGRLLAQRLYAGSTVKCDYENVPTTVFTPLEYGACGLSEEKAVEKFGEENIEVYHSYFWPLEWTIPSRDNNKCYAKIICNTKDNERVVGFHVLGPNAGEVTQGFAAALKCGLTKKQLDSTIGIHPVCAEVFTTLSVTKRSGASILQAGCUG
Description: (§1) Cells were seeded onto 100 mm or 60 mm culture plates and upon reaching ~70% confluency, they were subjected to drug treatment for indicated durations. Pellets of compound-treated or DMSO control cells comprising both attached and floating cells were collected and lysed in lysis buffer (25 mM Tris-HCl pH 7.5, 100 mM NaCl, 2.5 mM EDTA, 2.5 mM EGTA, 20 mM NaF, 1 mM Na3VO4, 20 mM sodium β-glycerophosphate, 10 mM sodium pyrophosphate, 0.5% Triton X-100) with freshly added protease inhibitor cocktail (Roche Diagnostics). Prior to being used in Western blot analysis and/or cellular TrxR, GR, Trx and GPx activity determination, lysates were precleared by centrifugation and protein concentrations were determined using a modified Bradford assay (Bio-Rad Laboratories) as described in the manufacturer's manual. This procedure for collecting whole cell lysate was used for all experiments except for the Trx-redox state determination experiment. Equal amounts of protein (50 μg) in each lysate sample were separated by SDS-PAGE, followed by electroblotting onto nitrocellulose membranes. Electroblotted proteins on membranes were probed with a primary antibody and subsequently by a secondary antibody conjugated to HRP.
Freshly collected cell lysates were used for measurement of activity of cellular Trx and TrxR. To measure TrxR activity, in each well of a 96-well plate, 25 μg of cell lysate was incubated in a final volume of 50 μl containing 85 mM Hepes (pH 7.6), 0.3 mM insulin, 10 μM rhTrx1, 2.5 mM EDTA and 660 μM NADPH for 40 min at 37°C. Controls containing lysates and all reaction reagents except rhTrx1 for each lysate sample were also set up. 200 μl of 1 mM DTNB in 6 M guanidine-HCl, 200 mM Tris-HCl pH 8.0 solution was added to quench the reaction. The amount of free thiols generated from insulin reduction was determined by DTNB reduction at 412 nm using the VersaMax microplate reader. To measure Trx activity, procedures were carried out similar to those for determining cellular TrxR activity, except that the cell lysates were incubated for 20 min with 300 nM recombinant rat TrxR in place of rhTrx1. Controls containing lysates and all reaction reagents except recombinant rat TrxR for each lysate sample were also set up. For each sample, Trx or TrxR activity was calculated as the absorbance at 412 nm subtracted from that of the corresponding control and expressed as a percentage of the activity measured in DMSO-treated cells.

HCT 116 cells = assay: MTT cell viability assay, HCT 116 cells; assay type: cell-based; conditions: Homo sapiens, 72 h, mean ± SD of 3 experiments; for GI50: read-out: GI50 (50% growth inhibition concentration), HCT 116 cells
Description: HCT 116 and MCF-7 cells were seeded in 96-well plates at a density of 1 × 10^4 cells/well and allowed to grow for 20-24 h before addition of test compounds. DMSO stocks of indolin-2-one compounds were serially diluted in medium each time an assay was performed. Cell viability was determined at the time of compound addition (time 0) and after 72 h of compound treatment by reduction of 3-(4,5-dimethylthiazol-2-yl)-2,5-diphenyltetrazolium bromide (MTT) by dehydrogenases in viable cells. MTT was added into each well (final concentration 400 μg/ml) and the plates were incubated for 4 h at 37°C. The supernatants were aspirated and upon solubilization of the formed formazan crystals in DMSO:glycine buffer pH 10.5 (ratio 4:1), absorbance at 550 nm was measured. 50% growth inhibition concentrations (GI50) and 50% lethal concentrations (LC50) values were calculated.

[1] = molecular target: T2, TrxR in Keap1-null (Keap1−/−) MEFs (Mus musculus, UniProt Q9JMH6); assay: TrxR activity in Keap1-null MEF lysates; assay type: cell-based; conditions: 5 h treatment, 20 to 40 μM
T2 sequence (Q9JMH6 115-613 limits assumed): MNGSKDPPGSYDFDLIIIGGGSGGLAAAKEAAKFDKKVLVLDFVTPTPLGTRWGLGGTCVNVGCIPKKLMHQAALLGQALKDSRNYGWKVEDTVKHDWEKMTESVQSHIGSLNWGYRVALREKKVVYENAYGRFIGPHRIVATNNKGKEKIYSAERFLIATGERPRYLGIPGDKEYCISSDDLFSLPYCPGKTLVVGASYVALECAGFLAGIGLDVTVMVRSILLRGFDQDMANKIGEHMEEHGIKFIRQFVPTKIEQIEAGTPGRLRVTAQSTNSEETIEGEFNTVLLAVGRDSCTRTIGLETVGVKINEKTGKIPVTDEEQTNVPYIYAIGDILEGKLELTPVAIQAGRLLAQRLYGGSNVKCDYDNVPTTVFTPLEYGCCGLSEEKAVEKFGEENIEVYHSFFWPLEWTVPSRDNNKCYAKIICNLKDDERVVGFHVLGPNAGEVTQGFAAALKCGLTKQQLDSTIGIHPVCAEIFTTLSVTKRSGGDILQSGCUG
Description: as §1, with “Equal amounts of protein (50 μg) in each lysate sample were separated by SDS-PAGE, followed by electroblotting onto nitrocellulose membranes. Electroblotted proteins on membranes were probed with a primary antibody and subsequently by a secondary antibody conjugated to HRP.” left out
Freshly collected cell lysates were used for measurement of activity of cellular Trx and TrxR. […] The amount of free thiols generated from insulin reduction was determined by DTNB reduction at 412 nm using the VersaMax microplate reader. […] For each sample, Trx or TrxR activity was calculated as the absorbance at 412 nm subtracted from that of the corresponding control and expressed as a percentage of the activity measured in DMSO-treated cells.

Trx in HCT 116 cells = assay: Trx redox state in cells (IAA alkylation, native PAGE); assay type: cell-based, human; conditions: 40 μM; 4, 8 and 14 h
Description: The redox state of cellular Trx was assessed as previously described. HCT 116 cells were seeded in 60 mm plates and allowed to grow to 70% confluency. Compounds 4 or 5 were then added to the cells for 4, 8 or 14 h. Lysates were collected in lysis buffer (50 mM Tris-HCl pH 8.3, 2 mM EDTA, 6 M guanidine HCl, 0.5% Triton-X, 50 mM IAA). The lysates were incubated in the dark for 30 min at room temperature, sonicated briefly, and finally passed through a MicroSpin G-25 column (GE Healthcare) to remove guanidine and unreacted IAA. The desalted lysates were subjected to native PAGE, followed by transfer of separated proteins onto nitrocellulose membranes for Western blot analysis using anti-Trx antibody.

[2] = cell viability, MRC-5 normal lung fibroblasts; assay type: cell-based; conditions: MRC-5 human normal lung fibroblasts, read-out: LC50, MRC-5 cells

SMILES	cellular TrxR activity, HCT 116 cells (TrxR in HCT 116 cells)	GI50 (HCT 116 cells) [µM]	TrxR activity in Keap1−/− MEFs [1]	Trx oxidation in HCT 116 cells (Trx in HCT 116 cells)	CC50 at 72 h [2] [µM]	LC50 (50% lethal concentration) (HCT 116 cells) [µM]	cellular TrxR activity at 40 and 50 μM, HCT 116 cells (TrxR in HCT 116 cells; 10 h treatment, 40 and 50 μM, p < 0.05 vs DMSO)
CC(=O)C=C1C(=O)N(C)c2ccccc21 [Compound 1, 1-methyl-3(2-oxopropylidene)indolin-2-one]	did not cause apparent inhibition	11.8 ± 3.3	–	–	–	–	–
CCCCN1C(=O)/C(=C/C(C)=O)c2ccccc21 [Compound 4]	decrease in TrxR activity in a dose-dependent manner	4.5 ± 0.9	elevated TrxR activity	time-dependent oxidation of Trx	25.5 ± 2.7	9.7 ± 0.2	–
CC(=O)/C=C1/C(=O)N(Cc2ccccc2)c2ccccc21 [Compound 5]	decrease in TrxR activity in a dose-dependent manner	3.2 ± 0.1	elevated TrxR activity	time-dependent oxidation of Trx	22.7 ± 2.4	9.4 ± 0.3	significant reduction
CN1C(=O)/C(=C/C(=O)c2ccccc2)c2ccccc21 [Compound 6]	did not cause apparent inhibition	8.5 ± 0.8	–	–	–	27.2 ± 2.4	–
